Reference: PubChem BioAssay AID1918996 (Molecular Pharmacology Branch, DTP, NCI, 2023)

Test system: 349418-098-R-PDC complex spheroid growth
Assay: Anticancer human tumor 349418-098-R-PDC patient-derived lung adenocarcinoma cell line growth inhibition [AhR]
Details: for IC50: curve of first compound; for viability, T/C: stronger effect = lower value
How it was run: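 Agents were dosed in half-log steps down from roughly clinical Cmax, or from 10 microM where Cmax was unknown, alone and with AhR antagonists. Read-out: percent test/control growth of tumor spheroids containing HUVEC and MSC stromal cells.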

[1] = second compound 0.1 µM, first compound 0.00949 µM
[2] = second compound 0.1 µM, first compound 0.03 µM
[3] = second compound 0.1 µM, first compound 0.0949 µM
[4] = second compound 0.1 µM, first compound 0.3 µM
[5] = second compound 0.316 µM, first compound 0.00949 µM
[6] = second compound 0.316 µM, first compound 0.03 µM
[7] = second compound 0.316 µM, first compound 0.0949 µM
[8] = second compound 0.316 µM, first compound 0.3 µM
[9] = second compound 1 µM, first compound 0.00949 µM
[10] = second compound 1 µM, first compound 0.03 µM
[11] = second compound 1 µM, first compound 0.0949 µM
[12] = second compound 1 µM, first compound 0.3 µM
[13] = second compound 3.16 µM, first compound 0.00949 µM
[14] = second compound 3.16 µM, first compound 0.03 µM
[15] = second compound 3.16 µM, first compound 0.0949 µM
[16] = second compound 3.16 µM, first compound 0.3 µM
[17] = second compound 10 µM, first compound 0.00949 µM
[18] = second compound 10 µM, first compound 0.03 µM
[19] = second compound 10 µM, first compound 0.0949 µM
[20] = second compound 10 µM, first compound 0.3 µM
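Further: spheroids exposed to agents for seven days before luminescence viability read.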
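Wherever viability, T/C is given: spheroids also contain HUVEC endothelial cells and human MSC stroma.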

SMILES	IC50 (second compound 0.1 µM) [nM]	IC50 (second compound 0.316 µM) [nM]	IC50 (second compound 1 µM) [nM]	IC50 (second compound 3.16 µM) [nM]	IC50 (second compound 10 µM) [nM]	viability, T/C [1] [%]	viability, T/C [2] [%]	viability, T/C [3] [%]	viability, T/C [4] [%]	viability, T/C [5] [%]	viability, T/C [6] [%]	viability, T/C [7] [%]	viability, T/C [8] [%]	viability, T/C [9] [%]	viability, T/C [10] [%]	viability, T/C [11] [%]	viability, T/C [12] [%]	viability, T/C [13] [%]	viability, T/C [14] [%]	viability, T/C [15] [%]	further results
O=C(C=Cn1cnc(-c2cc(C(F)(F)F)cc(C(F)(F)F)c2)n1)NNc1cnccn1 + CC(CO)NC(=O)c1cc(-c2ccc(Cl)cc2)nn(-c2cnn(C)c2)c1=O	< 9.49	< 9.49	16.9	< 9.49	< 9.49	44.2	32.1	18	9.7	42.7	34.2	22.2	10.9	62.4	37.9	20.1	11.7	48	43.3	18.6	viability, T/C (second compound 0.1 µM, first compound 0.949 µM): 8.06%; viability, T/C (second compound 0.1 µM, first compound 3 µM): 6.68%; viability, T/C (second compound 0.316 µM, first compound 0.949 µM): 7.86%; viability, T/C (second compound 0.316 µM, first compound 3 µM): 5.14%; viability, T/C (second compound 1 µM, first compound 0.949 µM): 9.27%; viability, T/C (second compound 1 µM, first compound 3 µM): 5.79%; viability, T/C [16]: 9.44%; viability, T/C (second compound 3.16 µM, first compound 0.949 µM): 7.82%; viability, T/C (second compound 3.16 µM, first compound 3 µM): 5.81%; viability, T/C [17]: 36.1%; viability, T/C [18]: 34.6%; viability, T/C [19]: 18.9%; viability, T/C [20]: 8.82%; viability, T/C (second compound 10 µM, first compound 0.949 µM): 7.38%; viability, T/C (second compound 10 µM, first compound 3 µM): 6.61%
CCc1c2c(nc3ccc(O)cc13)-c1cc3c(c(=O)n1C2)COC(=O)[C@]3(O)CC + CC(CO)NC(=O)c1cc(-c2ccc(Cl)cc2)nn(-c2cnn(C)c2)c1=O	< 0.949	< 0.949	< 0.949	< 0.949	< 0.949	18.3	8.94	5.8	3.72	13.1	7.93	5.5	4.2	14.2	9.54	8.88	4.3	13	7.97	6.24	viability, T/C (second compound 0.1 µM, first compound 0.000949 µM): 42.1%; viability, T/C (second compound 0.1 µM, first compound 0.003 µM): 37.1%; viability, T/C (second compound 0.316 µM, first compound 0.000949 µM): 34.2%; viability, T/C (second compound 0.316 µM, first compound 0.003 µM): 30.5%; viability, T/C (second compound 1 µM, first compound 0.000949 µM): 33.9%; viability, T/C (second compound 1 µM, first compound 0.003 µM): 21%; viability, T/C (second compound 3.16 µM, first compound 0.000949 µM): 22.4%; viability, T/C (second compound 3.16 µM, first compound 0.003 µM): 18.9%; viability, T/C [16]: 4.5%; viability, T/C (second compound 10 µM, first compound 0.000949 µM): 20.1%; viability, T/C (second compound 10 µM, first compound 0.003 µM): 17.4%; viability, T/C [17]: 12.2%; viability, T/C [18]: 8.79%; viability, T/C [19]: 6.32%; viability, T/C [20]: 5.7%
